Results from patent US12509460B2 (Skyhawk Therapeutics, Inc., priority 2019, dated 2025).

How the values were obtained:
[1] = test system: SMN FL and SMN Δ7 in spinal muscular atrophy (SMA) patient fibroblasts (GM03813, Coriell); assay: Quantitative splicing assay (SMN), qPCR; assay type: cell-based, human; details: Homo sapiens, Fibroblast, 24 h, SMA patient fibroblasts GM03813, 24 h, qPCR; read-out: SMN2 Splicing FL EC50
Description: Spinal muscular atrophy (SMA) patient fibroblasts (GM03813, Coriell) are plated in 96-well plates at 50,000 cells/well. […] Treated cells are lysed and cDNA synthesized using the Fast Advanced Cells-to-Ct kit (Thermofisher A35378) according to the manufacturer's instructions. 2 μL of each cDNA are used in qPCR reactions. […] Reactions are run in a Quant Studio 6 qPCR instrument with default settings.

MDR1 (P-gp) = assay: Blood-brain-barrier (BBB) penetration potential via MDCK-MDR1 permeability assay; details: dog; for Papp A→B at 120 min, 5 μM: MDCK-MDR1, pH 7.4, MDCK-MDR1: Papp A-B, A-B direction; for Papp B→A at 120 min, 5 μM: MDCK-MDR1, pH 7.4, MDCK-MDR1: Papp B-A, B-A direction
[2] = test system: MDR1-MDCK cell monolayers; assay: as above; details: for MDCK-MDR1: % Recov A-B: A-B direction; for MDCK-MDR1: % Recov B-A: B-A direction
MDR1 = assay: as above; details: dog, MDCK-MDR1, pH 7.4, MDCK-MDR1: Efflux, efflux ratio
[3] = test system: SMN protein in spinal muscular atrophy (SMA) patient fibroblasts (GM03813, Coriell); assay: SMN protein assay, Mesoscale Discovery (MSD); assay type: cell-based, human; details: SMA patient fibroblasts GM03813, 48 hours, MSD; for EC50: read-out: SMN2 protein EC50
Method in brief: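 SMA patient fibroblasts (GM03813) seeded at 7000 cells/well and exposed to compound at 2.5 μM to 0.6 nM for 48 hours. Lysates assayed for SMN by MSD immunoassay, with absolute SMN amount calculated from a per-plate SMN standard curve (1 μg/ml to 19.5 pg/ml).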

[4] = test system: mHTT protein in GM04724 (CAG 70/20) Huntington's disease patient lymphoblast cells; assay: mHTT protein assay, 2B7-MW1 assay via Mesoscale Discovery (MSD); assay type: cell-based, human; details: GM04724 Huntington's disease patient lymphoblasts
Method in brief: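 Patient lymphoblasts treated 48 h with compound from 10 μM to 0.6 nM. mHTT quantified by MSD 2B7-MW1 immunoassay, whose signal depends on polyQ expansion and HTT size. Viability measured on a replicate plate by CellTiter Glo.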

Compound	EC50 [1] [nM]	Papp A→B at 120 min, 5 μM (MDR1 (P-gp)) [×10⁻⁶ cm/s]	Papp B→A at 120 min, 5 μM (MDR1 (P-gp)) [×10⁻⁶ cm/s]	MDCK-MDR1: % Recov A-B [2] [%]	MDCK-MDR1: % Recov B-A [2] [%]	efflux ratio at 120 min, 5 μM (MDR1)	EC50 [3] [nM]	EC50 [4] [nM]	SMN2 protein EC50 [3]	mHTT protein EC50 [4]
CN(c1ccc(-c2ccc(-c3ccccn3)cc2O)nn1)[C@@H]1C[C@H]2CCC[C@H](N2)[C@@H]1F [Compound 23A, 2-(6-(((1S,2S,3R,5R)-2-fluoro-9-azabicyclo[3.3.1]nonan-3-yl)(methyl)amino)pyridazin-3-yl)-5-(pyridin-2-yl)phenol]	51 to 100	3.33	34.9	64	83	10	16 to 50	51 to 100		
Cc1ccc(-c2ccc(-c3ccc(N(C)[C@@H]4C[C@H]5CCC[C@H](N5)[C@@H]4F)nn3)c(O)c2)nn1 [Compound 27A, 2-(6-(((1S,2S,3R,5R)-2-fluoro-9-azabicyclo[3.3.1]nonan-3-yl)(methyl)amino)pyridazin-3-yl)-5-(6-methylpyridazin-3-yl)phenol]	51 to 100	1.08	46.6	90	86	43	0.01 to 15	101 to 500		
CN(c1ccc(-c2ccc(C#N)cc2O)nn1)[C@@H]1C[C@H]2CC[C@H](N2)[C@@H]1F [Compound 38A, 4-(6-(((1S,2S,3R,5R)-2-fluoro-8-azabicyclo[3.2.1]octan-3-yl)(methyl)amino)pyridazin-3-yl)-3-hydroxybenzonitrile]	16 to 50	13	39.2	83	85	3		101 to 500	E (501 ≤ E ≤ 10.000)	
CN(c1ccc(-c2ccc(C#N)cc2O)nn1)[C@H]1C[C@@H]2CC[C@@H](N2)[C@H]1F [Compound 38B, 4-(6-(((1R,2R,3S,5S)-2-fluoro-8-azabicyclo[3.2.1]octan-3-yl)(methyl)amino)pyridazin-3-yl)-3-hydroxybenzonitrile]	16 to 50	18.9	47.1	95	102	2	16 to 50	16 to 50		
CN(c1ccc(-c2cc3cccnc3cc2O)nn1)[C@@H]1C[C@H]2CC(F)(F)[C@@H](C1)N2 [Compound 45A, 6-(6-(((1S,3R,5R)-6,6-difluoro-8-azabicyclo[3.2.1]octan-3-yl)(methyl)amino)pyridazin-3-yl)quinolin-7-ol]	101 to 500	9.45	54.6	104	115	6	16 to 50	51 to 100		
CN(c1ccc(-c2cc3ncn(CC(F)(F)F)c(=O)c3cc2O)nn1)[C@@H]1C[C@H]2CCC[C@H](N2)[C@@H]1F [Compound 58A, 7-(6-(((1S,2S,3R,5R)-2-fluoro-9-azabicyclo[3.3.1]nonan-3-yl)(methyl)amino)pyridazin-3-yl)-6-hydroxy-3-(2,2,2-trifluoroethyl)quinazolin-4(3H)-one]	101 to 500	0.36	71.4	86	89	201	0.01 to 15	101 to 500		
CN(c1ccc(-c2cc3ncn(CC(F)(F)F)c(=O)c3cc2O)nn1)[C@H]1C[C@@H]2CCC[C@@H](N2)[C@H]1F [Compound 58B, 7-(6-(((1R,2R,3S,5S)-2-fluoro-9-azabicyclo[3.3.1]nonan-3-yl)(methyl)amino)pyridazin-3-yl)-6-hydroxy-3-(2,2,2-trifluoroethyl)quinazolin-4(3H)-one]	0.01 to 15	0.43	53.9	76	85	126	0.01 to 15			E (501 ≤ E ≤ 10.000)
CN(c1ccc(-c2cc3ncn(CC(F)(F)F)c(=O)c3cc2O)nn1)[C@@H]1C[C@H]2CC(F)(F)[C@@H](C1)N2 [Compound 59A, 7-(6-(((1S,3R,5R)-6,6-difluoro-8-azabicyclo[3.2.1]octan-3-yl)(methyl)amino)pyridazin-3-yl)-6-hydroxy-3-(2,2,2-trifluoroethyl)quinazolin-4(3H)-one]	51 to 100	2.11	74	97	96	35	16 to 50	101 to 500		
CN(c1ccc(-c2ccc(-n3ccnn3)cc2O)nn1)[C@@H]1C[C@H]2CC[C@H](N2)[C@@H]1F [Compound 61A, 2-(6-(((1S,2S,3R,5R)-2-fluoro-8-azabicyclo[3.2.1]octan-3-yl)(methyl)amino)pyridazin-3-yl)-5-(1H-1,2,3-triazol-1-yl)phenol]	16 to 50	4.29	60.3	91	88	14	0.01 to 15	16 to 50		
CN(c1ccc(-c2ccc(-n3cnc(C#N)c3)cc2O)nn1)[C@@H]1C[C@H]2CCC[C@H](N2)[C@@H]1F [Compound 63A, 1-(4-(6-(((1S,2S,3R,5R)-2-fluoro-9-azabicyclo[3.3.1]nonan-3-yl)(methyl)amino)pyridazin-3-yl)-3-hydroxyphenyl)-1H-imidazole-4-carbonitrile]	16 to 50	1.5	46	76	91	31	0.01 to 15	51 to 100		
CN(c1ccc(-c2ccc(-n3cnc(C#N)c3)cc2O)nn1)[C@H]1C[C@@H]2CCC[C@@H](N2)[C@H]1F [Compound 63B, 1-(4-(6-(((1R,2R,3S,5S)-2-fluoro-9-azabicyclo[3.3.1]nonan-3-yl)(methyl)amino)pyridazin-3-yl)-3-hydroxyphenyl)-1H-imidazole-4-carbonitrile]	16 to 50	2.31	44.9	72	96	19	0.01 to 15	16 to 50		
CN(c1ccc(-c2ccc(-n3cnc(C#N)c3)cc2O)nn1)[C@@H]1C[C@H]2CC[C@H](N2)[C@@H]1F [Compound 69A, 1-(4-(6-(((1S,2S,3R,5R)-2-fluoro-8-azabicyclo[3.2.1]octan-3-yl)(methyl)amino)pyridazin-3-yl)-3-hydroxyphenyl)-1H-imidazole-4-carbonitrile]	51 to 100	1.36	39.4	87	86	29	16 to 50	101 to 500		
CN(c1ccc(-c2ccc(-n3cnc(C#N)c3)cc2O)nn1)[C@H]1C[C@@H]2CC[C@@H](N2)[C@H]1F [Compound 69B, 1-(4-(6-(((1R,2R,3S,5S)-2-fluoro-8-azabicyclo[3.2.1]octan-3-yl)(methyl)amino)pyridazin-3-yl)-3-hydroxyphenyl)-1H-imidazole-4-carbonitrile]	51 to 100	1.51	52.3	88	90	35	0.01 to 15	16 to 50		
CN(c1ccc(-c2cc3cccnc3cc2O)nn1)[C@@H]1C[C@H]2CC[C@H](N2)[C@@H]1F [Compound 74A, 6-(6-(((1S,2S,3R,5R)-2-fluoro-8-azabicyclo[3.2.1]octan-3-yl)(methyl)amino)pyridazin-3-yl)quinolin-7-ol]	101 to 500	3.13	44.5	69	81	14	16 to 50	16 to 50		
CN(c1ccc(-c2cc3ncn(CC(F)(F)F)c(=O)c3cc2O)nn1)[C@@H]1C[C@H]2CC[C@H](N2)[C@@H]1F [Compound 81A, 7-(6-(((1S,2S,3R,5R)-2-fluoro-8-azabicyclo[3.2.1]octan-3-yl)(methyl)amino)pyridazin-3-yl)-6-hydroxy-3-(2,2,2-trifluoroethyl)quinazolin-4(3H)-one]	51 to 100	0.37	51	100	94	139	16 to 50	101 to 500		
